Results on 19 compounds are retold here after US20260167623A1 (NIKANG THERAPEUTICS, INC., priority 2022, published 2026).

The experiment addresses T1, CDK2 (Homo sapiens, UniProt P24941).
T1 construct: High-Throughput Measurement of Cellular Endogenous CDK2; endogenous in cells; host or cells: OVCAR3
In words: Inhibition of CDK2: phospho-Rb (S807/811) HTRF measurement in OVCAR3 cells, 24 h. It counts as cell-based. The settings on record: 24 h compound treatment, read-out: pRB_OVCAR3_24h. The method, boiled down:
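IC50 came from a four-parameter fit of DMSO-normalized TR-FRET ratios (665/620 nm) reporting phospho-Rb S807/811. Lysates were taken from OVCAR3 cultures treated 24 h with compound (0.3 to 10,000 nM) and incubated 4 h at room temperature with the antibody pair.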
On the technique in general: Time-resolved FRET reads energy transfer from a long-lived donor to a nearby acceptor.

With `Cn1nc(N2CCC(=O)NC2=O)c2ccc(C3CCN(Cc4cccc(S(=O)(=O)N5CC6(CC(Nc7ncc(C(F)(F)F)cn7)C6)C5)c4)CC3)cc21` [Example 146, 1-(1-methyl-6-(1-(3-((6-((5-(trifluoro-methyl)pyrimidin-2-yl)amino)-2-azaspiro[3.3]heptan-2-yl)sulfonyl)benzyl)-piperidin-4-yl)-1H-indazol-3-yl)dihydropyrimidine-2,4(1H,3H)-dione], the IC50 was above 2500 nM.

As for `Cn1nc(N2CCC(=O)NC2=O)c2ccc(C3CCN(Cc4cccc(S(=O)(=O)N5CC(Nc6ncc(C(F)(F)F)cn6)C5)c4)CC3)cc21` [Example 154, 1-(1-methyl-6-(1-(3-((3-((5-(trifluoromethyl)pyrimidin-2-yl)amino)azetidin-1-yl)sulfonyl)benzyl)piperidin-4-yl)-1H-indazol-3-yl)dihydropyrimidine-2,4(1H,3H)-dione], the IC50 was above 2500 nM. Next, `Cn1cc(-c2cnc(NC3CCN(S(=O)(=O)c4cccc(N5CCC(CN6CCC(c7ccc8c(N9CCC(=O)NC9=O)nn(C)c8c7)CC6)CC5)c4)CC3)nc2)cn1` [Example 155, 1-(1-methyl-6-(1-((1-(3-((4-((5-(1-methyl-1H-pyrazol-4-yl)pyrimidin-2-yl)amino)piperidin-1-yl)sulfonyl)phenyl)piperidin-4-yl)methyl)piperidin-4-yl)-1H-indazol-3-yl)dihydropyrimidine-2,4(1H,3H)-dione]: above 2500 nM; `Cn1nc(N2CCC(=O)NC2=O)c2ccc(C3CCN(CC4CCC(c5cccc(S(=O)(=O)N6CCC(Nc7ncc(Cl)cn7)CC6)c5)CC4)CC3)cc21` (stereo not shown) [Example 156, 1-(6-(1-((4-(3-((4-((5-chloropyrimidin-2-yl)amino)piperidin-1-yl)sulfonyl)phenyl)cyclohexyl)methyl)piperidin-4-yl)-1-methyl-1H-indazol-3-yl)dihydropyrimidine-2,4(1H,3H)-dione 2,2,2-trifluoroacetate]: 100 to 500 nM. On to `Cn1nc(N2CCC(=O)NC2=O)c2ccc(C3CCN(Cc4ccc(C5CCCN(S(=O)(=O)N6CCC(Nc7ncc(Cl)cn7)CC6)C5)cc4)CC3)cc21` (stereo not shown) [Example 157, 1-(6-(1-(4-(1-((4-((5-chloropyrimidin-2-yl)amino)piperidin-1-yl)sulfonyl)piperidin-3-yl)benzyl)piperidin-4-yl)-1-methyl-1H-indazol-3-yl)dihydropyrimidine-2,4(1H,3H)-dione], for which the IC50 was in the range of 500 to 2500 nM. With `Cn1nc(N2CCC(=O)NC2=O)c2ccc(C3CCN(CC4CCN(c5ccc(S(=O)(=O)N6CCC(Nc7ncc(Cl)cn7)CC6)cc5)CC4)CC3)cc21` [Example 158, 1-(6-(1-((1-(4-((4-((5-chloropyrimidin-2-yl)amino)piperidin-1-yl)sulfonyl)phenyl)piperidin-4-yl)methyl)piperidin-4-yl)-1-methyl-1H-indazol-3-yl)dihydropyrimidine-2,4(1H,3H)-dione], the IC50 is 500 to 2500 nM. For `Cn1nc(N2CCC(=O)NC2=O)c2ccc(N3CCN(CC4CCN(c5cccc(S(=O)(=O)N6CCC(Nc7ncc(Cl)cn7)CC6)c5)CC4)CC3(C)C)cc21` [Example 159, 1-(6-(4-((1-(3-((4-((5-chloropyrimidin-2-yl)amino)piperidin-1-yl)sulfonyl)phenyl)piperidin-4-yl)methyl)-2,2-dimethylpiperazin-1-yl)-1-methyl-1H-indazol-3-yl)dihydropyrimidine-2,4(1H,3H)-dione] the value was 100 to 500 nM; for `Cn1nc(N2CCC(=O)NC2=O)c2ccc(C3CCN(CC4CCN(c5cc(C#N)cc(S(=O)(=O)N6CCC(Nc7ncc(Cl)cn7)CC6)c5)CC4)CC3)cc21` [Example 160, 3-((4-((5-chloropyrimidin-2-yl)amino)piperidin-1-yl)sulfonyl)-5-(4-((4-(3-(2,4-dioxotetrahydropyrimidin-1(2H)-yl)-1-methyl-1H-indazol-6-yl)piperidin-1-yl)methyl)piperidin-1-yl)benzonitrile 2,2,2-trifluoroacetate], 100 to 500 nM. For `Cn1nc(N2CCC(=O)NC2=O)c2ccc(C3CCN(CC4CCN(c5ccc(C#N)c(S(=O)(=O)N6CCC(Nc7ncc(Cl)cn7)CC6)c5)CC4)CC3)cc21` [Example 161, 2-((4-((5-chloropyrimidin-2-yl)amino)piperidin-1-yl)sulfonyl)-4-(4-((4-(3-(2,4-dioxotetrahydropyrimidin-1(2H)-yl)-1-methyl-1H-indazol-6-yl)piperidin-1-yl)methyl)piperidin-1-yl)benzonitrile] the value was above 2500 nM.

For `Cn1nc(N2CCC(=O)NC2=O)c2ccc(C3CCN(Cc4cnn(C5CCN(S(=O)(=O)N6CCC(Nc7ncc(Cl)cn7)CC6)CC5)c4)CC3)cc21` [Example 163, 1-(6-(1-((1-(1-((4-((5-chloropyrimidin-2-yl)amino)piperidin-1-yl)sulfonyl)piperidin-4-yl)-1H-pyrazol-4-yl)methyl)piperidin-4-yl)-1-methyl-1H-indazol-3-yl)dihydropyrimidine-2,4(1H,3H)-dione], the IC50 is above 2500 nM. Consider `Cn1nc(N2CCC(=O)NC2=O)c2ccc(C3CCN(CC4(C#N)CCN(c5cccc(S(=O)(=O)N6CCC(Nc7ncc(Cl)cn7)CC6)c5)CC4)CC3)cc21` [Example 164, 1-(3-((4-((5-chloropyrimidin-2-yl)amino)piperidin-1-yl)sulfonyl)phenyl)-4-((4-(3-(2,4-dioxotetrahydropyrimidin-1(2H)-yl)-1-methyl-1H-indazol-6-yl)piperidin-1-yl)methyl)piperidine-4-carbonitrile], for which the IC50 is above 2500 nM. In the case of `Cn1nc(N2CCC(=O)NC2=O)c2ccc(N3CCC(CN4C5CCC4CN(c4cccc(S(=O)(=O)N6CCC(Nc7ncc(Cl)cn7)CC6)c4)C5)CC3)cc21` [Example 166, 1-(6-(4-((3-(3-((4-((5-chloropyrimidin-2-yl)amino)piperidin-1-yl)sulfonyl)phenyl)-3,8-diazabicyclo[3.2.1]octan-8-yl)methyl)piperidin-1-yl)-1-methyl-1H-indazol-3-yl)dihydropyrimidine-2,4(1H,3H)-dione], the IC50 was above 2500 nM. As for `Cn1c(=O)n(C2CCC(=O)NC2=O)c2cc(C3CCN(CC4CCN(c5cccc(S(=O)(=O)N6CCC(Nc7ncc(C(F)(F)F)cn7)CC6)c5)CC4)CC3)ccc21` (stereo not shown) [Example 167, 3-(3-methyl-2-oxo-6-(1-((1-(3-((4-((5-(trifluoromethyl)pyrimidin-2-yl)amino)piperidin-1-yl)sulfonyl)phenyl)piperidin-4-yl)methyl)piperidin-4-yl)-2,3-dihydro-1H-benzo[d]imidazol-1-yl)piperidine-2,6-dione], the IC50 is 500 to 2500 nM. `Cn1nc(N2CCC(=O)NC2=O)c2ccc(C3CCN(Cc4cc(S(=O)(=O)N5CCC(Nc6ncc(OC(F)F)cn6)CC5)ccc4C#N)CC3)cc21` [Example 169, 4-((4-((5-(difluoromethoxy)pyrimidin-2-yl)amino)piperidin-1-yl)sulfonyl)-2-((4-(3-(2,4-dioxotetrahydropyrimidin-1(2H)-yl)-1-methyl-1H-indazol-6-yl)piperidin-1-yl)methyl)benzonitrile]: the IC50 was in the range of 100 to 500 nM. `Cn1nc(N2CCC(=O)NC2=O)c2ccc(C3CCN(CC4CCN(c5cc(C(F)(F)F)cc(S(=O)(=O)N6CCC(Nc7ncc(Cl)cn7)CC6)c5)CC4)CC3)cc21` [Example 170, 1-(6-(1-((1-(3-((4-((5-chloropyrimidin-2-yl)amino)piperidin-1-yl)sulfonyl)-5-(trifluoromethyl)phenyl)piperidin-4-yl)methyl)piperidin-4-yl)-1-methyl-1H-indazol-3-yl)dihydropyrimidine-2,4(1H,3H)-dione]: the IC50 fell in the range of 500 to 2500 nM.

In the case of `O=C1CCC(n2c(=O)n(C3CCN(CC4CCN(c5cccc(S(=O)(=O)N6CCC(Nc7ncc(C(F)(F)F)cn7)CC6)c5)CC4)CC3)c3ccccc32)C(=O)N1` (stereo not shown) [Example 171, 3-(2-oxo-3-(1-((1-(3-((4-((5-(trifluoromethyl)pyrimidin-2-yl)amino)piperidin-1-yl)sulfonyl)phenyl)piperidin-4-yl)methyl)piperidin-4-yl)-2,3-dihydro-1H-benzo[d]imidazol-1-yl)piperidine-2,6-dione], the IC50 is 100 to 500 nM. For `Cn1nc(N2CCC(=O)NC2=O)c2ccc(C3CCN(CC4CCN(c5cccc(S(=O)(=O)N6CC7(CC(Nc8ncc(C(F)(F)F)cn8)C7)C6)c5)CC4)CC3)cc21` [Example 172, 1-(1-methyl-6-(1-((1-(3-((6-((5-(trifluoromethyl)pyrimidin-2-yl)amino)-2-azaspiro[3.3]heptan-2-yl)sulfonyl)phenyl)piperidin\-4-yl)methyl)piperidin-4-yl)-1H-indazol-3-yl)dihydropyrimidine-2,4(1H,3H)-dione] the value was above 2500 nM. For `Cn1c(=O)n(C2CCC(=O)NC2=O)c2cccc(C3CCN(CC4CCN(c5cc(C(F)(F)F)cc(S(=O)(=O)N6CCC(Nc7ncc(Cl)cn7)CC6)c5)CC4)CC3)c21` (stereo not shown) [Example 173, 3-(4-(1-((1-(3-((4-((5-chloropyrimidin-2-yl)amino)piperidin-1-yl)sulfonyl)-5-(trifluoromethyl)phenyl)piperidin-4-yl)methyl)piperidin-4-yl)-3-methyl-2-oxo-2,3-dihydro-1H-benzo[d]imidazol-1-yl)piperidine-2,6-dione] the value was 500 to 2500 nM; for `Cn1c(=O)n(C2CCC(=O)NC2=O)c2cccc(C3CCN(CC4CCN(c5cc(C(F)(F)F)cc(S(=O)(=O)N6CCC(Nc7ncc(OC(F)F)cn7)CC6)c5)CC4)CC3)c21` (stereo not shown) [Example 176, 3-(4-(1-((1-(3-((4-((5-(difluoromethoxy)pyrimidin-2-yl)amino)piperidin-1-yl)sulfonyl)-5-(trifluoromethyl)phenyl)piperidin-4-yl)methyl)piperidin-4-yl)-3-methyl-2-oxo-2,3-dihydro-1H-benzo[d]imidazol-1-yl)piperidine-2,6-dione], 500 to 2500 nM.
